Patent publication US20080039450A1, “Compounds” (priority 2006, published 2008)

Target: T1, MNK2a (Homo sapiens, UniProt Q9HBH9)
T1 construct: expressed in transfected cells; host or cells: HEK293 cells, transient co-transfection with p-eIF4E and p-MNK2a (FuGene6)
Experiment: Cell assay of MNK2a: phosphorylation of downstream substrate eIF4E in HEK293 cells transfected with MNK2a and eIF4E (Western blot)
Type: cell-based
Details: HEK293 cells over-expressing MNK2a and eIF4E; 60 min incubation; phospho-eIF4E band at 28 kDa by densitometry
Procedure: Analysis of the Effect of MNK-Inhibitors on Phosphorylation of the DownStream Substrate eIF4E
According to the literature el F4E is a unique substrate for MNK1 and MNK2. The purpose of the analysis was to over-express MNK2a together with eIF4E and subsequently incubate with substances of the invention. This would inhibit the MNK2a activity and thereby the phosphorylation of eIF 4E.
Day 1 HEK293 cells were plated in a T162 cm2-flask.
Day 2 Transient transfection with p-elF4E and p-MNK2a. […]
Protein Determination: • The cell lysates were thawed by putting the plates on ice, transferred to Eppendorf tubes and centrifuged at 1300 g, +4° C., 10 min. • 12.5 μl of the supernatant was transferred directly to the plate for protein determination (->dil 1:2) and the rest of the supernatant to new pre-cold tubes and store in −70° C. until assayed. • Day 5-6 Western Blot analysis of cell lysates, according to standard methods, using a specific phospho-elF4E antibody. • To quantify the effect of the substance on the phosphorylation of eIF4E, developed x-ray film from the Western blot analysis was scanned using a densitometer and Image Gauge 4.0 software. The detected band at 28 kDa with 0 μM substance was set to 100%. The density of the band at 28 kDa with the different concentrations of the substance was then analysed. […]

T1 sequence (Q9HBH9 whole entry): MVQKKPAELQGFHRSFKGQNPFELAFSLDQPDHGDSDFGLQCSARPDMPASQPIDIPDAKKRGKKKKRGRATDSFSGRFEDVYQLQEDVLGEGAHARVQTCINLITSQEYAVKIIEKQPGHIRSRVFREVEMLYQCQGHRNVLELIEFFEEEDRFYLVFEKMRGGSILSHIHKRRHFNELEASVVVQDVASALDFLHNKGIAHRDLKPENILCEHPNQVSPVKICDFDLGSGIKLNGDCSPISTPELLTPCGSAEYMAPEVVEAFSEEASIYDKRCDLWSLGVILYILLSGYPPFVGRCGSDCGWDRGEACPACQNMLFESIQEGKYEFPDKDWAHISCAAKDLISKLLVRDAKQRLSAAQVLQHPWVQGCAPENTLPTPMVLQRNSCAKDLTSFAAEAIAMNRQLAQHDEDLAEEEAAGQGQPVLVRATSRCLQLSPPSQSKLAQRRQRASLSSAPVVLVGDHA

Row | IC50 | SMILES
1 | 1900 nM | Nc1ncc(-c2ccc(C(=O)N3CCOCC3)cc2F)nc1-c1ccc(O)cc1 [Example 6, 4-{3-amino-6-[2-fluoro-4-(morpholin-4-ylcarbonyl)phenyl]pyrazin-2-yl}phenol]
2 | 900 nM | O=C(c1ccc(-c2cncc(-c3ccc(O)cc3)n2)cc1)N1CCOCC1 [Example 77, 4-{6-[4-(morpholin-4-ylcarbonyl)phenyl]pyrazin-2-yl}phenol]
